Tested on: lung gene expression
Experiment: RNA sequencing of lung tissue (BLM/EL244 vs BLM)
Format: in vivo, mouse
Method: RNA quality was assessed using an Agilent TapeStation 4150 with the High Sensitivity […] ScreenTape (Agilent), according to the manufacturer’s protocols. For library preparation, the QuantSeq 3’mRNA-Seq Library Prep Kit (Lexogen) was used according to manufacturer’s instructions. Briefly, 500 ng of RNA from each sample was used for first-strand synthesis, followed by RNA template removal, and second-strand synthesis initiated by random primers. In-line barcodes were introduced at this step, and this was followed by magnetic bead-based purification. The resulting libraries were amplified for 15 cycles and re-purified, with quantity and quality assessed on a Qubit 4 Fluorometer with the Invitrogen Qubit dsDNA HS Assay and an Agilent Tapestation 4150 with the High Sensitivity D1000 assay kit, respectively. The quantified libraries were pooled equimolarly; 50ng of total library mix was used for Adapter Conversion PCR Amplification using the Universal Library Conversion Kit (App-A), Version: V1.0 (MGI Tech Co., Ltd.), according to the manufacturer’s instructions.
The quantity and quality of the purified adapter conversion PCR (AC-PCR) product were evaluated on a Qubit 4 Fluorometer with the Invitrogen Qubit dsDNA HS Assay and on an Agilent Tapestation 4150 with the High Sensitivity D1000 assay kit, respectively. This was followed by DNA denaturation, Single-Strand Circularisation, Enzymatic Digestion, Enzymatic Digestion Product Cleanup and Quality Control steps on 1 pmol of AC-PCR product, according to the Universal Library Conversion Kit (App-A) User Manual (Version: A3).
Finally, 60 fmol of ssCirDNA were used for DNB preparation and sequencing on a DNBSEQ-G400 platform at the BSRC Alexander Fleming Genomics Facility, using a G400 App-A FCS SE100 High-throughput Sequencing Set (MGI Tech Co., Ltd.), according to the manufacturer’s instructions.
Alignment of the FASTQ files was performed against the mouse genome build mm10 using a custom Bash script.[143] Read counting on the 3′ UTRs and differential expression analysis were conducted using the metaseqR2 bioconductor package.[144] Genes corresponding to the following biotypes were excluded: polymorphic_pseudogene, processed_transcript, pseudogene, IG_V_pseudogene, misc_RNA, IG_C_gene, IG_J_gene, IG_D_gene, IG_LV_gene, TR_V_gene, TR_V_pseudogene, TEC, and processed_pseudogene. Gene counts were normalized with DESEQ[145] through metaseqR2. Genes with more than 10 counts in at least 50% of the samples were kept for further processing. For differential expression analysis, the PANDORA algorithm[146] was used to estimate a meta p-value integrating the results from the DESEQ, DESEQ2,[147] edgeR,[148] limma,[149] NBPSeq,[150] and NOISeq[151] algorithms. All additional parameters were set to default values.
Pathway enrichment analysis was performed for the Gene Ontology Biological process (BP) and Molecular Function (MF) terms through GeneCodis 4.[152] The volcano plots, scatterplots, Venn diagrams, and dot plots were generated using the ggplot2 Bioconductor package.

## O=C1NC(=O)C(Cc2ccc(OCCC3CCN(C(=O)OCc4cc(Cl)cc(Cl)c4)CC3)cc2)S1 (stereo not drawn) [EL244, 3,5-dichlorobenzyl 4-(2-(4-((2,4-dioxothiazolidin-5-yl)methyl)phenoxy)ethyl)piperidine-1-carboxylate]
BLM/EL244 vs BLM, lung tissue
  Rbm24 nFC: 2.29
  Rdh12 log2 nFC: 1.74
  Rdh12 nFC: 3.34
  Retnlg log2 nFC: 1.46
  Retnlg nFC: 2.74
  Ryr2 log2 nFC: 2.14
  Ryr2 nFC: 4.39
  S1pr5 log2 nFC: 1.64
  S1pr5 nFC: 3.12
  S100a8 log2 nFC: 1.52
  S100a8 nFC: 2.86
  S100a9 log2 nFC: 2.11
  S100a9 nFC: 4.32
  Scel log2 nFC: 1.31
  Scel nFC: 2.47
  Shank3 log2 nFC: 1.61
  Shank3 nFC: 3.05
  Slc38a4 log2 nFC: 1.12
  Slc38a4 nFC: 2.17
  Sln log2 nFC: 2.01
  Sln nFC: 4.02
  Smad6 log2 nFC: 1.18
  Smad6 nFC: 2.26
  Smpx log2 nFC: 2.34
  Smpx nFC: 5.08
  Smyd1 log2 nFC: 1.73
  Smyd1 nFC: 3.32
  Snhg11 log2 nFC: 1.40
  Snhg11 nFC: 2.64
  Snx21 log2 nFC: 1.15
  Snx21 nFC: 2.21
  Sox18 log2 nFC: 1.91
  Sox18 nFC: 3.76
  Spink5 log2 nFC: 1.36
  Spink5 nFC: 2.57
  Tbata log2 nFC: 1.72
  Tbata nFC: 3.30
  Tcap log2 nFC: 1.73
  Tcap nFC: 3.32
  Tex11 log2 nFC: 1.83
  Tex11 nFC: 3.55
  Tmem182 log2 nFC: 2.26
  Tmem182 nFC: 4.78
  Tmem132d log2 nFC: 2.38
  Tmem132d nFC: 5.19
  Tnnc1 log2 nFC: 2.18
  Tnnc1 nFC: 4.53
  Tnni3 log2 nFC: 2.31
  Tnni3 nFC: 4.95
  Tnnt2 log2 nFC: 1.77
  Tnnt2 nFC: 3.42
  Ttn log2 nFC: 2.53
  Ttn nFC: 5.78
  Upk3b log2 nFC: 1.53
  Upk3b nFC: 2.88
  Xndc1 log2 nFC: 1.14
  Xndc1 nFC: 2.21
  Zbtb16 log2 nFC: 1.33
  Zbtb16 nFC: 2.51
  Zmynd10 log2 nFC: 1.28
  Zmynd10 nFC: 2.44
DEG 1810010H24Rik, nFC: normalised fold change
  1810010H24Rik log2 nFC BLM/EL244 vs BLM: 0.90
DEG 1810020O05Rik, nFC: normalised fold change
  1810020O05Rik log2 nFC BLM/EL244 vs BLM: 1.58
DEG 2410004I01Rik, nFC: normalised fold change
  2410004I01Rik log2 nFC BLM/EL244 vs BLM: 1.80
DEG 9330159F19Rik, nFC: normalised fold change
  9330159F19Rik log2 nFC BLM/EL244 vs BLM: 1.78
DEG 9530026P05Rik, nFC: normalised fold change
  9530026P05Rik log2 nFC BLM/EL244 vs BLM: 3.17
DEG A3galt2, nFC: normalised fold change
  A3galt2 log2 nFC BLM/EL244 vs BLM: 2.32
DEG AA467197
  log2 nFC BLM/EL244 vs BLM: -1.39
DEG Abca8a, nFC: normalised fold change
  Abca8a log2 nFC BLM/EL244 vs BLM: 0.75
DEG Abi3bp, nFC: normalised fold change
  Abi3bp log2 nFC BLM/EL244 vs BLM: 1.00
DEG Acaa1b, nFC: normalised fold change
  Acaa1b log2 nFC BLM/EL244 vs BLM: 1.43
DEG Acbd4, nFC: normalised fold change
  Acbd4 log2 nFC BLM/EL244 vs BLM: 0.86
DEG Acot1, nFC: normalised fold change
  Acot1 log2 nFC BLM/EL244 vs BLM: 1.08
DEG Acoxl, nFC: normalised fold change
  Acoxl log2 nFC BLM/EL244 vs BLM: 1.23
DEG Actc1, nFC: normalised fold change
  Actc1 log2 nFC BLM/EL244 vs BLM: 1.28
DEG Adam3, nFC: normalised fold change
  Adam3 log2 nFC BLM/EL244 vs BLM: 1.67
DEG Adam12
  log2 nFC BLM/EL244 vs BLM: -1.57
DEG Adamts12
  log2 nFC BLM/EL244 vs BLM: -1.47
DEG Adh7, nFC: normalised fold change
  Adh7 log2 nFC BLM/EL244 vs BLM: 1.02
DEG Alas2, nFC: normalised fold change
  Alas2 log2 nFC BLM/EL244 vs BLM: 1.58
DEG Aldh1a1, nFC: normalised fold change
  Aldh1a1 log2 nFC BLM/EL244 vs BLM: 0.78
DEG Ankrd37
  log2 nFC BLM/EL244 vs BLM: -1.50
DEG Ankrd44, nFC: normalised fold change
  Ankrd44 log2 nFC BLM/EL244 vs BLM: 0.84
DEG Ankrd63, nFC: normalised fold change
  Ankrd63 log2 nFC BLM/EL244 vs BLM: 1.34
DEG Aox3, nFC: normalised fold change
  Aox3 log2 nFC BLM/EL244 vs BLM: 1.07
DEG Aqp9, nFC: normalised fold change
  Aqp9 log2 nFC BLM/EL244 vs BLM: 1.66
DEG Ar, nFC: normalised fold change
  Ar log2 nFC BLM/EL244 vs BLM: 1.04
DEG Arhgap28, nFC: normalised fold change
  Arhgap28 log2 nFC BLM/EL244 vs BLM: 1.14
DEG Arhgef38, nFC: normalised fold change
  Arhgef38 log2 nFC BLM/EL244 vs BLM: 0.87
DEG Arl4a, nFC: normalised fold change
  Arl4a log2 nFC BLM/EL244 vs BLM: 0.70
DEG Armcx4
  log2 nFC BLM/EL244 vs BLM: -1.32
DEG Arrdc2, nFC: normalised fold change
  Arrdc2 log2 nFC BLM/EL244 vs BLM: 1.24
DEG Asgr1, nFC: normalised fold change
  Asgr1 log2 nFC BLM/EL244 vs BLM: 1.80
DEG Atp2a3, nFC: normalised fold change
  Atp2a3 log2 nFC BLM/EL244 vs BLM: 0.83
DEG Atp6v1c2, nFC: normalised fold change
  Atp6v1c2 log2 nFC BLM/EL244 vs BLM: 1.03
DEG Baiap3, nFC: normalised fold change
  Baiap3 log2 nFC BLM/EL244 vs BLM: 1.24
DEG Bbof1, nFC: normalised fold change
  Bbof1 log2 nFC BLM/EL244 vs BLM: 1.11
DEG Bcl2a1d
  log2 nFC BLM/EL244 vs BLM: -1.29
DEG Bex2, nFC: normalised fold change
  Bex2 log2 nFC BLM/EL244 vs BLM: 1.46
DEG Bmp6, nFC: normalised fold change
  Bmp6 log2 nFC BLM/EL244 vs BLM: 1.07
DEG Bpifa1, nFC: normalised fold change
  Bpifa1 log2 nFC BLM/EL244 vs BLM: 1.12
DEG C1qa
  log2 nFC BLM/EL244 vs BLM: -1.44
DEG C1qb
  log2 nFC BLM/EL244 vs BLM: -1.51
DEG C1qc
  log2 nFC BLM/EL244 vs BLM: -1.56
DEG C1qtnf6
  log2 nFC BLM/EL244 vs BLM: -1.38
DEG C3ar1
  log2 nFC BLM/EL244 vs BLM: -1.58
DEG C130080G10Rik, nFC: normalised fold change
  C130080G10Rik log2 nFC BLM/EL244 vs BLM: 3.58
DEG Car3, nFC: normalised fold change
  Car3 log2 nFC BLM/EL244 vs BLM: 1.57
DEG Casq2, nFC: normalised fold change
  Casq2 log2 nFC BLM/EL244 vs BLM: 2.36
DEG Cbr2, nFC: normalised fold change
  Cbr2 log2 nFC BLM/EL244 vs BLM: 0.91
DEG Ccdc153, nFC: normalised fold change
  Ccdc153 log2 nFC BLM/EL244 vs BLM: 0.79
DEG Ccdc171, nFC: normalised fold change
  Ccdc171 log2 nFC BLM/EL244 vs BLM: 1.04
DEG Ccl2
  log2 nFC BLM/EL244 vs BLM: -1.43
DEG Ccl8
  log2 nFC BLM/EL244 vs BLM: -1.54

Reference: paper PMC13198257, “An aerosolized dual-action autotaxin inhibitor-PPARγ agonist for the treatment of pulmonary fibrosis” (Cell Reports Medicine, 2026)
